Patent US9701664B2, “Fused 1,4-dihydrodioxin derivatives as inhibitors of heat shock transcription factor 1” (Cancer Research Technology Limited, priority 2013, dated 2017)

tested on: HSP72 in SK-OV-3 cells; test: Cell-based ELISA (Cellisa) assay, SK-OV-3 cells: inhibition of 17-AAG-induced HSP72; details: Homo sapiens; SK-OV-3 cells (Examples 169-218)
Procedure: U2OS cells (5-8×10^4 cells/mL) or SK-OV-3 cells (5-8×10^4 cells/mL) were seeded into 96-well plates and incubated at 37° C. for 48 h. Compounds were then added at a range of concentrations and incubated for 1 h before addition of 17-AAG (250 nM). Cells were then incubated for 18 h. The medium was removed washed 2× with PBS and cells were then fixed with fixing solution (4% paraformaldehyde, 0.3% TritonX-100 in PBS) for 30 min at 4° C. The plates were then washed 2× with PBS before blocking with 5% milk for 30 min at 37° C. After washing the plates 4× with 0.1% Tween-20/deionised water, HSP72 antibody (SPA-810, Enzo Life) was added for 1.5 h at 37° C. Following 4× washes, the plates were incubated with europium-labelled anti-mouse antibody (0.6 ug/ml) in Delfia assay buffer (Perkin Elmer) for 1 h at 37° C. After washing the plates, Delfia enhancement solution was added, shaken for 10 min before reading in the Envision plate reader (Perkin-Elmer) with excitation at 340 nm and emission at 615 nm. The plates were washed again before protein determination using the bicinchoninic acid assay (BCA assay, Pierce Biotechnology). The europium counts were normalised for the amount of protein in each well. The 50% inhibitory concentration value of the compound was then calculated.

Point of comparison: `CC1CN(Cc2ccc3cc(C(=O)Nc4cc(NC(=O)c5ccc6c(c5)OCCO6)ccc4F)ccc3n2)C1` [Example 182, N-(5-(2,3-dihydrobenzo[b][1,4]dioxine-6-carboxamido)-2-fluorophenyl)-2-((3-methylazetidin-1-yl)methyl)quinoline-6-carboxamide], IC50 232 nM. Against it:
- CC(C)N1CCN(Cc2ccc3cc(C(=O)Nc4cc(NC(=O)c5ccc6c(c5)OCCO6)ccc4F)ccc3n2)CC1 [Example 185, N-(5-(2,3-dihydrobenzo[b][1,4]dioxine-6-carboxamido)-2-fluorophenyl)-2-((4-isopropylpiperazin-1-yl)methyl)quinoline-6-carboxamide] — 1.7-fold lower, 137 nM
- CCN1CCN(Cc2ccc3cc(C(=O)Nc4cc(NC(=O)c5ccc6c(c5)OCCO6)ccc4C)ccc3n2)CC1 [Example 204, N-(5-(2,3-dihydrobenzo[b][1,4]dioxine-6-carboxamido)-2-methylphenyl)-2-((4-ethylpiperazin-1-yl)methyl)quinoline-6-carboxamide] — 4.1-fold lower, 56 nM
- Cc1ccc(NC(=O)c2ccc3c(c2)OCCO3)cc1NC(=O)c1ccc2nc(CN3CCCC3C)ccc2c1 (stereo not shown) [Example 205, N-(5-(2,3-dihydrobenzo[b][1,4]dioxine-6-carboxamido)-2-methylphenyl)-2-((2-methylpyrrolidin-1-yl)methyl)quinoline-6-carboxamide] — 3.6-fold lower, 65 nM
- CC(C)(C)N1CCN(Cc2ccc3cc(C(=O)Nc4cc(NC(=O)c5ccc6c(c5)OCCO6)ccc4Cl)ccc3n2)CC1 [Example 191, 2-((4-(tert-butyl)piperazin-1-yl)methyl)-N-(2-chloro-5-(2,3 dihydrobenzo[b][1,4]dioxine-6-carboxamido)phenyl)quinoline-6-carboxamide] — 1.7-fold lower, 134 nM
- O=C(Nc1ccc(Cl)c(NC(=O)c2ccc3nc(CN4CCC4)ccc3c2)c1)c1ccc2c(c1)OCCO2 [Example 199, 2-(azetidin-1-ylmethyl)-N-(2-chloro-5-(2,3-dihydrobenzo[b][1,4]dioxine-6-carboxamido)phenyl)quinoline-6-carboxamide] — 2.7-fold lower, 85 nM
- Cc1ccc(NC(=O)c2ccc3c(c2)OCCO3)cc1NC(=O)c1ccc2nc(CN3CCC3)ccc2c1 [Example 203, 2-(azetidin-1-ylmethyl)-N-(5-(2,3-dihydrobenzo[b][1,4]dioxine-6-carboxamido)-2-methylphenyl)quinoline-6-carboxamide] — 10-fold lower, 23 nM
- O=C(Nc1ccc(F)c(NC(=O)c2ccc3nc(OCCN4CCCC4)ccc3c2)c1)c1ccc2c(c1)OCCO2 [Example 188, N-(5-(2,3-dihydrobenzo[b][1,4]dioxine-6-carboxamido)-2-fluorophenyl)-2-(2-(pyrrolidin-1-yl)ethoxy)quinoline-6-carboxamide] — 4.1-fold lower, 57 nM
- CCN1CCN(Cc2ccc3cc(C(=O)Nc4cc(NC(=O)c5ccc6c(c5)OCCO6)ccc4Cl)ccc3n2)CC1 [Example 196, N-(2-chloro-5-(2,3-dihydrobenzo[b][1,4]dioxine-6-carboxamido)phenyl)-2-((4-ethylpiperazin-1-yl)methyl)quinoline-6-carboxamide] — 4.8-fold lower, 48 nM
- Cc1ccc(NC(=O)c2ccc3c(c2)OCCO3)cc1NC(=O)c1ccc2nc(CN3CC[C@@H](F)C3)ccc2c1 [Example 206, (R)—N-(5-(2,3-dihydrobenzo[b][1,4]dioxine-6-carboxamido)-2-methylphenyl)-2-((3-fluoropyrrolidin-1-yl)methyl)quinoline-6-carboxamide] — 3.1-fold lower, 76 nM
- O=C(Nc1ccc(F)c(NC(=O)c2ccc3nc(CN4CCN(C5CC5)CC4)ccc3c2)c1)c1ccc2c(c1)OCCO2 [Example 178, 2-((4-cyclopropylpiperazin-1-yl)methyl)-N-(5-(2,3-dihydrobenzo[b][1,4]dioxine-6-carboxamido)-2-fluorophenyl)quinoline-6-carboxamide] — 5.3-fold lower, 44 nM
- O=C(Nc1ccc(F)c(NC(=O)c2ccc3nc(CN4CCC4)ccc3c2)c1)c1ccc2c(c1)OCCO2 [Example 171, 2-(azetidin-1-ylmethyl)-N-(5-(2,3-dihydrobenzo[b][1,4]dioxine-6-carboxamido)-2-fluorophenyl)quinoline-6-carboxamide] — 1.9-fold higher, 450 nM
- O=C(Nc1ccc(F)c(NC(=O)c2ccc3nc(CN4CC5(CCC5)C4)ccc3c2)c1)c1ccc2c(c1)OCCO2 [Example 181, 2-(2-azaspiro[3.3]heptan-2-ylmethyl)-N-(5-(2,3-dihydrobenzo[b][1,4]dioxine-6-carboxamido)-2-fluorophenyl)quinoline-6-carboxamide] — 1.6-fold lower, 149 nM
- CCN1CCN(Cc2ccc3cc(C(=O)Nc4cc(NC(=O)c5ccc6c(c5)OCCO6)ccc4F)ccc3n2)[C@@H](C)C1 [Example 213, (S)—N-(5-(2,3-dihydrobenzo[b][1,4]dioxine-6-carboxamido)-2-fluorophenyl)-2-((4-ethyl-2-methylpiperazin-1-yl)methyl)quinoline-6-carboxamide] — 4.1-fold lower, 57 nM
- O=C(Nc1ccc(Cl)c(NC(=O)c2ccc3nc(CN4CCN(C5CC5)CC4)ccc3c2)c1)c1ccc2c(c1)OCCO2 [Example 194, N-(2-chloro-5-(2,3-dihydrobenzo[b][1,4]dioxine-6-carboxamido)phenyl)-2-((4-cyclopropylpiperazin-1-yl)methyl)quinoline-6-carboxamide] — within 1.5-fold, 213 nM
- COC1CCN(Cc2ccc3cc(C(=O)Nc4cc(NC(=O)c5ccc6c(c5)OCCO6)ccc4C)ccc3n2)C1 (stereo not shown) [Example 208, N-(5-(2,3-dihydrobenzo[b][1,4]dioxine-6-carboxamido)-2-methylphenyl)-2-((3-methoxypyrrolidin-1-yl)methyl)quinoline-6-carboxamide] — 4.4-fold lower, 53 nM
- CCN1CCN(C(C)c2ccc3cc(C(=O)Nc4cc(NC(=O)c5ccc6c(c5)OCCO6)ccc4F)ccc3n2)CC1 (stereo not shown) [Example 214, N-(5-(2,3-dihydrobenzo[b][1,4]dioxine-6-carboxamido)-2-fluorophenyl)-2-(1-(4-ethylpiperazin-1-yl)ethyl)quinoline-6-carboxamide] — 4.1-fold higher, 957 nM
- O=C(Nc1ccc(F)c(NC(=O)c2ccc3nc(OCCCN4CCCCC4)ccc3c2)c1)c1ccc2c(c1)OCCO2 [Example 186, N-(5-(2,3-dihydrobenzo[b][1,4]dioxine-6-carboxamido)-2-fluorophenyl)-2-(3-(piperidin-1-yl)propoxy)quinoline-6-carboxamide] — 18-fold lower, 13 nM
- Cc1ccc(NC(=O)c2ccc3c(c2)OCCO3)cc1NC(=O)c1ccc2nc(CN3CCCCC3)ccc2c1 [Example 209, N-(5-(2,3-dihydrobenzo[b][1,4]dioxine-6-carboxamido)-2-methylphenyl)-2-(piperidin-1-ylmethyl)quinoline-6-carboxamide] — within 1.5-fold, 208 nM
- Cc1ccc(NC(=O)c2ccc3c(c2)OCCO3)cc1NC(=O)c1ccc2nc(CN3CCN(C(C)C)CC3)ccc2c1 [Example 202, N-(5-(2,3-dihydrobenzo[b][1,4]dioxine-6-carboxamido)-2-methylphenyl)-2-((4-isopropylpiperazin-1-yl)methyl)quinoline-6-carboxamide] — 3.8-fold lower, 61 nM
- C=Cc1ccc(NC(=O)c2ccc3c(c2)OCCO3)cc1NC(=O)c1ccc2nc(C)ccc2c1 [Example 210, N-(5-(2,3-dihydrobenzo[b][1,4]dioxine-6-carboxamido)-2-vinylphenyl)-2-methylquinoline-6-carboxamide] — 1.8-fold higher, 419 nM

same assay, conditions: SK-OV-3 cells (Examples 169-218)

With “2-((4-(tert-butyl)piperazin-111)methyl)-N-(5-(2,3-dihydrobenzo[b][1,4]dioxine-6-carboxamido)-2-fluorophenyl)quinoline-6-carboxamide [Example 177]” the IC50 was 70 nM.
